This assay deals with Prostate-specific membrane antigen (PSMA), canine (Canis lupus, UniProt I4IY07). Briefly: HPLC-based enzyme inhibition assay. The format is biochemical.
Prostate-specific membrane antigen (PSMA), canine, sequence (I4IY07 29-779): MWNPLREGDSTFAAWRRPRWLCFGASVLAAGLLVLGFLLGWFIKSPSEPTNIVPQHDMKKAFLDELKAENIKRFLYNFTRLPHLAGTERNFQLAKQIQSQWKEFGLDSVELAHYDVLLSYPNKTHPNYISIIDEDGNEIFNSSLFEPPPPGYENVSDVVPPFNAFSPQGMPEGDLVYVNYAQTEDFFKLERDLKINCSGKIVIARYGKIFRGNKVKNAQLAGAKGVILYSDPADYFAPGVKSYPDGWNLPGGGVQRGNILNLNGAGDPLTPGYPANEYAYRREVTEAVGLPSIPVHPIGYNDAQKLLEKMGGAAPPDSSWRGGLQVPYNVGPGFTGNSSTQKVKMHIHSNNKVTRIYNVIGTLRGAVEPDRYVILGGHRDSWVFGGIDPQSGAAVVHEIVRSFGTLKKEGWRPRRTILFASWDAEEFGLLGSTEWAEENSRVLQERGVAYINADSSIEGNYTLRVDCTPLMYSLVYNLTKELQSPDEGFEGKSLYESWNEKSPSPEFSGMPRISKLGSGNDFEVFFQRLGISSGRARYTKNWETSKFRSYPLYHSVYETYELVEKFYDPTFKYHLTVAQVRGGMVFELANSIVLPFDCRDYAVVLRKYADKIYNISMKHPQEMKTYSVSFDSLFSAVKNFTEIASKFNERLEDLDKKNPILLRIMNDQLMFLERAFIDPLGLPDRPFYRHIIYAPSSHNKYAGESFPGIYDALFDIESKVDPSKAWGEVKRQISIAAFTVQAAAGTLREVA

Regarding FAMX-CTT-54 [compound 2], the midpoint of inhibition, the IC50, lay at 1.6 nM.
